These results are taken from patent US20240148821A1, “PHARMACEUTICAL USE OF CYCLIC PEPTIDE COMPOUND” (CHUGAI SEIYAKU KABUSHIKI KAISHA, priority 2021, published 2024).

Numbered stars: 1 amine (or outer) side, 2 acyl side, 3 side chain; on linkers, the order of the positions; unused ones are H or OH. Bridge positions count the residues as written; N and C are the ends. Square brackets hold non-standard residues; d marks the D form. Peptide text beside a SMILES is read from it. * marks the point of attachment. hPhe(3-Cl-4-CF3) = N[C@@H](CCc1ccc(C(F)(F)F)c(Cl)c1)C(=O)O; hPhe(4-CF3) = N[C@@H](CCc1ccc(C(F)(F)F)cc1)C(=O)O; NMePhe(4-Cl) = CN[C@@H](Cc1ccc(Cl)cc1)C(=O)O; NMedβ3hAla = C[C@H](CC(=O)[*:2])N(C)[*:1]; NMeCha = CN[C@@H](CC1CCCCC1)C(=O)O; NMeF = CN[C@@H](Cc1ccccc1)C(=O)O; NMeI = CC[C@H](C)[C@H](NC)C(=O)O; Gly(cBu) = N[C@H](C(=O)O)C1CCC1; NMeD = CN[C@@H](CC(=O)O)C(=O)O; NMeL = CN[C@@H](CC(C)C)C(=O)O; NMeV = CN[C@H](C(=O)O)C(C)C; d(β3hA) = C[C@@H](N)CC(=O)O; NMeA = CN[C@@H](C)C(=O)O; NMeAib = CNC(C)(C)C(=O)O; Nle = CCCC[C@H](N)C(=O)O; Piperidide = C1CCN(*)CC1; Ac5c = NC1(C(=O)O)CCCC1; Aze = O=C(O)[C@@H]1CCN1; Sar = CNCC(=O)O

For the assay, the target named is protein-protein interaction between Kras and SOS1 (biotin-tagged human Kras loaded with GDP, His-tagged human SOS1) (Homo sapiens (Human), UniProt P01116, G12D). Description: Protein-protein interaction inhibition between Kras and SOS1 (KrasG12D-SOS PPI) using AlphaScreen.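 Note: kras produced in E. coli, Ni-coupled donor beads and streptavidin acceptor beads, excitation 680 nm with emission detected at 520–620 nm via singlet oxygen transfer.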 It is filed as biochemical. The conditions noted are these: AlphaScreen; biotin-tagged human Kras loaded with GDP, His-tagged human SOS1; read-out: KRAS G12D-SOS PPI IC50. (Bead proximity is the source of the signal in Alpha formats.)
As usually defined, the IC50 is the concentration needed to halve the response being measured. Turning to `CCCC[C@@H]1NC(=O)[C@H](CCc2ccc(C(F)(F)F)c(Cl)c2)NC(=O)CN(C)C(=O)[C@H](Cc2ccc(Cl)cc2)N(C)C(=O)CN(C)C(=O)CN(C)C(=O)[C@H]([C@@H](C)CC)NC(=O)[C@H](CC(C)C)N(C)C(=O)C[C@@H](C)N(C)C(=O)[C@H](CC(C)C)NC(=O)[C@H](Cc2ccccc2)N(C)C1=O` [Compound 566] (cyclo(I[Sar][Sar][NMePhe(4-Cl)][Sar][hPhe(3-Cl-4-CF3)][Nle][NMeF]L[NMedβ3hAla][NMeL])), the half-inhibitory concentration (IC50) amounted to 0.16 µM.
Take `CC[C@H](C)[C@@H]1NC(=O)[C@H](CC(C)C)N(C)C(=O)C[C@@H](C(=O)N(C)C)NC(=O)[C@H]([C@@H](C)CC)N(C)C(=O)C2(CCCC2)NC(=O)[C@@H]2CCCN2C(=O)[C@H](CCc2ccc(C(F)(F)F)c(Cl)c2)NC(=O)CN(C)C(=O)[C@H](CC2CCCCC2)N(C)C(=O)[C@@H]2CCN2C(=O)[C@H](C)N(C)C1=O` [Compound 568] ([NMeL]I[NMeA][Aze][NMeCha][Sar][hPhe(3-Cl-4-CF3)]P[Ac5c][NMeI]D-NMe2; lactam N-11): the 50% inhibitory concentration (IC50) came out at 0.008 µM.
The figure for `CC[C@H](C)[C@@H]1NC(=O)[C@H](CC2CCCCC2)N(C)C(=O)C[C@@H](C(=O)N2CCCCC2)N(C)C(=O)[C@H](C(C)C)N(C)C(=O)C2(CCCC2)NC(=O)[C@@H]2CCCN2C(=O)[C@H](CCc2ccc(C(F)(F)F)c(Cl)c2)NC(=O)CN(C)C(=O)[C@H](CC2CCCCC2)N(C)C(=O)[C@@H]2CCN2C(=O)[C@H](C)N(C)C1=O` [Compound 572] ([NMeCha]I[NMeA][Aze][NMeCha][Sar][hPhe(3-Cl-4-CF3)]P[Ac5c][NMeV][NMeD]-Piperidide; lactam N-11) is 0.039 µM; for `CC(C)C[C@H]1C(=O)N[C@@H](C2CCC2)C(=O)N(C)[C@@H](C)C(=O)N2CC[C@H]2C(=O)N(C)[C@@H](CC2CCCCC2)C(=O)N(C)CC(=O)N[C@@H](CCc2ccc(C(F)(F)F)c(Cl)c2)C(=O)N2CCC[C@H]2C(=O)NC2(CCCC2)C(=O)N(C)[C@@H](C(C)C)C(=O)N[C@H](C)CC(=O)N1C` [Compound 580] (cyclo([Ac5c][NMeV][d(β3hA)][NMeL][Gly(cBu)][NMeA][Aze][NMeCha][Sar][hPhe(3-Cl-4-CF3)]P)) it is 0.066 µM.
Then `CC[C@H](C)[C@@H]1NC(=O)[C@H](CC2CCCCC2)N(C)C(=O)C[C@@H](C)NC(=O)[C@H](CC(C)C)N(C)C(=O)C2(CCCC2)NC(=O)[C@H](CC(C)C)N(C)C(=O)[C@H](CCc2ccc(C(F)(F)F)cc2)NC(=O)CN(C)C(=O)[C@H](Cc2ccc(Cl)cc2)N(C)C(=O)CN(C)C(=O)CN(C)C1=O` [Compound 583] (cyclo([Ac5c][NMeL][d(β3hA)][NMeCha]I[Sar][Sar][NMePhe(4-Cl)][Sar][hPhe(4-CF3)][NMeL])), with 0.37 µM; and `CC[C@H](C)[C@@H]1NC(=O)[C@H](C)N(C)C(=O)C[C@@H](C)NC(=O)[C@H](CC(C)C)N(C)C(=O)[C@H](C(C)C)N(C)C(=O)[C@H](CC(C)C)N(C)C(=O)[C@H](CCc2ccc(C(F)(F)F)cc2)NC(=O)CN(C)C(=O)[C@H](Cc2ccc(Cl)cc2)N(C)C(=O)CN(C)C(=O)CN(C)C1=O` [Compound 588] (cyclo(I[Sar][Sar][NMePhe(4-Cl)][Sar][hPhe(4-CF3)][NMeL][NMeV][NMeL][d(β3hA)][NMeA])), with 0.36 µM; and `CC[C@H](C)[C@@H]1NC(=O)[C@H](CC2CCCCC2)N(C)C(=O)C[C@@H](C)N(C)C(=O)[C@H](CC(C)C)NC(=O)C(C)(C)N(C)C(=O)[C@H](CC(C)C)NC(=O)[C@H](CCc2ccc(C(F)(F)F)cc2)NC(=O)CN(C)C(=O)[C@H](Cc2ccc(Cl)cc2)N(C)C(=O)CN(C)C(=O)CN(C)C1=O` [Compound 595] (cyclo(I[Sar][Sar][NMePhe(4-Cl)][Sar][hPhe(4-CF3)]L[NMeAib]L[NMedβ3hAla][NMeCha])), with 0.29 µM.
